Assay results as given in patent US20220177462A1, “SUBSTITUTED HETEROCYCLIC AMIDE COMPOUND AND PREPARATION METHOD THEREFOR AND PHARMACEUTICAL USE THEREOF” (GENFLEET THERAPEUTICS (SHANGHAI) INC., priority 2019, published 2022).
Where two headings read alike, the source gives them in different places.

Experiments:
U937 cells = assay: Inhibitory activity against programmed necroptosis of U937 cells induced by TNF-α; type: cell-based, human
Method: The U937 cell strain which was used in the following Testing Examples was derived from ATCC, No.: CRL-1593.2, batch No.: 63479999, culture medium: RPMI-1640+10% FBS.
The compound was dissolved in DMSO to prepare a 10 mM stock solution. The stock solution was diluted in 3.16 folds with DMSO to a series of gradient concentrations. Then, the resultant solution was diluted in 250 folds with a culture medium to prepare a working solution. The U937 cells were inoculated in a 384-well plate at 5000/well. The compound at respective concentration was added to each of the cells, and was mixed with the cells homogeneously. 100 ng/ml human TNF-α and 25 μM Q-VD-Oph were added simultaneously to induce programmed necroptosis of the cells. The final concentration of DMSO was 2%. The cells were placed in the incubator at 37° C. and 5% CO2 for further culture of 48 hours. Celltiter-Glo reagent was used for detection. After adequate pyrolysis reaction, the chemiluminescence readout value was recorded by a microplate reader. The survival rate was calculated from the detection results using the equation as follows: SR (%)=(RLU compound−RLU blank)/(RLU high control−RLU blank)×100%. The survival rate was plotted against the final concentration of respective compound using a 4-parameter fitting to calculate the inhibitory IC50 of the compound against programmed necroptosis of cells induced by TNF-a.

L929 cells = assay: Inhibitory activity against programmed necroptosis of L929 cells induced by TNF-α; type: cell-based; settings: Mus musculus, 30 ng/ml murine TNF-α and 15 μM Z-VAD, 6 hours, CellTiter-Glo survival rate, read-out: L929 AbIC50
Method: The compound was dissolve in DMSO to prepare a 10 mM stock solution. The stock solution was diluted in 3.16 folds with DMSO to a series of gradient concentrations. Then, the resultant solution was diluted in 100 folds with a culture medium to prepare a working solution. The L929 cells were inoculated in a 384-well plate at 10000/well. The compound at respective concentration was added to each of the wells, and was mixed with the cells homogeneously. 30 ng/ml murine TNF-α and 15 μM Z-VAD were added simultaneously to induce programmed necroptosis of the cells. The final concentration of DMSO was 2%. The cells were placed in an incubator at 37° C. and 5% CO2 for further culture of 6 hours. CellTiter-Glo reagent was used for detection. After adequate pyrolysis reaction, the chemiluminescence readout value was recorded by a microplate reader. The survival rate was calculated from the detection results using the equation as follows: SR (%)=(RLU compound −RLU blank)/(RLU high control−RLU blank)×100%. The survival rate was plotted against the final concentration of respective compound using a 4-parameter fitting to calculate the inhibitory IC50 of the compound against programmed necroptosis of cells induced by TNF-a.

RIPK1 enzyme = biological target: T1, RIPK1 enzyme (Homo sapiens, UniProt Q13546); assay: Inhibitory activity of the compounds against RIPK1 enzyme (33P-ATP, MBP substrate); type: biochemical; settings: 36 nM RIPK1, 0.33 mg/ml MBP, 155 μM P33-labeled ATP, room temperature 2 hours
T1 construct: purchased Eurofins 16-022
T1 sequence (Q13546 1-671): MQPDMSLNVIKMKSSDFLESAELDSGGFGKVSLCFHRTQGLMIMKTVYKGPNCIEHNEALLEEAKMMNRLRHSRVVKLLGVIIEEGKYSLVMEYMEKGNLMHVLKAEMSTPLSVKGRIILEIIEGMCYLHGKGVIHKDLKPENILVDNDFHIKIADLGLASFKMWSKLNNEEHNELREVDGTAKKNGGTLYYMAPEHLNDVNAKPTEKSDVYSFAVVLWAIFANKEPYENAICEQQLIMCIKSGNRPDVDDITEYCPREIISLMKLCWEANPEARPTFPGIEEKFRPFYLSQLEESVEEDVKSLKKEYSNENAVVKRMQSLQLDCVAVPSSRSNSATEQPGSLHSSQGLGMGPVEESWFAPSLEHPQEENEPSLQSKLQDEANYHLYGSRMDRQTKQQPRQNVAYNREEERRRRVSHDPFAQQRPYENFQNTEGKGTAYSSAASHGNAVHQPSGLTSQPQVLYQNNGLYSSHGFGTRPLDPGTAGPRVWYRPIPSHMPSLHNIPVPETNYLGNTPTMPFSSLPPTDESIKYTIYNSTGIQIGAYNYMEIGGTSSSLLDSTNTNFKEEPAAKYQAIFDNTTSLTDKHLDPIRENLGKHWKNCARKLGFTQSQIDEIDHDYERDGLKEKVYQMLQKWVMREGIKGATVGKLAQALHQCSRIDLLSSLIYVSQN
Method: The test compound was dissolved in DMSO to prepare a 10 mM stock solution. The stock solution was diluted in 3.16 folds with DMSO to a series of gradient concentrations. Then, the resultant solution was diluted in 50 folds with MOPS buffer pH 7.0 to prepare a working solution. The working solution was mixed with 36 nM RIPK1 (final concentration) and 0.33 mg/ml substrate MBP homogeneously. Thereafter, 10 mM magnesium ion and 155 μM P^33 isotopically labeled ATP were added for the reaction. The final concentration of DMSO was 2%. After the reaction was carried out at room temperature for 2 hours phosphoric acid was added to terminate the reaction. The final reaction system was tested using a liquid scintillation counter after treatment. The result obtained by subtracting a blank control from the tested value was converted to activity percentage as compared to the readout value of control group. The activity percentage was plotted against the final concentration of respective compound using a 4-parameter fitting to obtain the inhibitory IC50 of the compound against RIPK1 enzyme.

[1] = read-out: U937 IC50, 100 ng/ml human TNF-α and 25 μM Q-VD-Oph, 48 hours, CellTiter-Glo survival rate
[2] = Homo sapiens, U-937, 48 h, 100 ng/ml human TNF-α and 25 μM Q-VD-Oph, 48 hours, CellTiter-Glo survival rate, read-out: U937 IC50

Structure (SMILES)	IC50 (RIPK1 enzyme)	IC50 (L929 cells)	IC50 (U937 cells; [2])	further results
COc1ncc(-c2ccc3nc(N)sc3c2)cc1C(=O)NC(C)c1ccccc1OC(F)(F)F (single isomer, unassigned) [Compound Z1-2]	14 nM	6 nM		IC50 (U937 cells; 100 ng/ml human TNF-α and 25 μM Q-VD-Oph, 48 hours, CellTiter-Glo survival rate, read-out: U937 IC50): 0.028 µM
COc1ncc(-c2ccc3nc(NC(C)=O)sc3c2)cc1C(=O)NC(C)c1ccccc1OC(F)(F)F (single isomer, unassigned) [Compound Z5, 5-(2-acetylaminobenzothiazol-6-yl)-2-methoxy-N-(1-(2-(trifluoromethoxy)phenyl)ethyl)nicotinamide]	29 nM			IC50 (U937 cells; [1]): 0.015 µM
COc1ncc(-c2ccc3nc(NC(C)=O)sc3c2)cc1C(=O)NC(C)c1ccccc1OC(F)(F)F (single isomer, unassigned) [Compound Z5-1]	28 nM			IC50 (U937 cells; [1]): 0.005 µM
COc1ncc(-c2ccc3nc(NC(=O)C4CC4)sc3c2)cc1C(=O)NC(C)c1ccccc1OC(F)(F)F (single isomer, unassigned) [Compound Z6, 5-(2-(cyclopropylcarbonylamino)benzo[d]thiazol-6-yl)-2-methoxy-N-(1-(2-(trifluoromethoxy)phenyl)ethyl)nicotinamide]	36 nM		0.008 µM	
COc1ncc(-c2ccc3nc(NC(=O)C4CC4)sc3c2)cc1C(=O)N[C@@H](C)c1ccccc1OC(F)(F)F (single isomer, unassigned) [Compound Z6-1]	60 nM		0.003 µM	
C[C@H](c1ccccc1OC(F)(F)F)N1CCc2ncc(-c3ccc4nc(N)sc4c3)cc2C1=O (single isomer, unassigned) [Compound Z54-2]	51 nM	< 3 nM		IC50 (U937 cells; Homo sapiens, U-937, 48 h, read-out: U937 IC50(μM), 100 ng/ml human TNF-α and 25 μM Q-VD-Oph, 48 hours, CellTiter-Glo survival rate): 0.001 µM
COc1ncc(-c2ccc3nc(N)sc3c2)cc1C(=O)NCc1ccccc1OC(F)(F)F [Compound Z2, 5-(2-aminobenzo[d]thiazol-6-yl)-2-methoxy-N-(2-(trifluoromethoxy)benzyl)nicotinamide]	23 nM		0.038 µM	
COc1ncc(-c2ccc3nc(N)sc3c2)cc1C(=O)NCc1cccc(OC(F)(F)F)c1 [Compound Z4, 5-(2-aminobenzo[d]thiazol-6-yl)-2-methoxy-N-(3-(trifluoromethoxy)benzyl)nicotinamide]	17 nM			
COc1ncc(-c2ccc3nc(N)sc3c2)cc1C(=O)N1CCC[C@H](Cc2ccc(F)cc2)C1 [Compound Z17-1]		10 nM	0.009 µM	
Cn1ncc2c(-c3ccn4nc(N)nc4c3)cc(C(=O)N3CCCC(Cc4ccc(F)cc4)C3)cc21 (centres unmarked) [Compound Z29, (4-(2-amino-[1,2,4]triazolo[1,5-a]pyridin-7-yl)-1-methyl-1H-indazol-6-yl)(3-(4-fluorobenzyl)piperidin-1-yl)methanone]		12 nM	0.007 µM	
Cn1ncc2c(-c3ccn4nc(N)nc4c3)cc(C(=O)NCc3cc(F)ccc3OC3CCCC3)cc21 [Compound Z31, 4-(2-amino-[1,2,4]triazolo[1,5-a]pyridin-7-yl)-N-(2-(cyclopentyloxy)-5-fluorobenzyl)-1-methyl-1H-indazole-6-carboxamide]		41 nM	0.002 µM	
COc1ncc(-c2ccc3nc(N)sc3c2)cc1C(=O)NCc1cc(F)cc(F)c1OCC(C)C [Compound Z49, 5-(2-aminobenzo[d]thiazol-6-yl)-N-(3,5-difluoro-2-isobutoxybenzyl)-2-methoxynicotinamide]		37 nM	0.006 µM	
COc1ncc(-c2ccc3nc(NC(=O)C4CC4)sc3c2)cc1C(=O)NC(C)c1ccccc1OC(F)(F)F (centres unmarked) [Compound Z56, 5-(2-(cyclopropylformamido)benzo[d]thiazol-6-yl)-2-methoxy-N-(1-(2-(trifluoromethoxy)phenyl)ethyl)nicotinamide]	36 nM		0.008 µM	

Continued, in another order:

IC50 (RIPK1 enzyme)	Structure (SMILES)	IC50 (L929 cells)	IC50 (U937 cells; [2])	further results
32 nM	COc1ncc(-c2ccc3nc(N)sc3c2)cc1C(=O)NC(C)c1cccc(OC(F)(F)F)c1 (centres unmarked) [Compound Z3, 5-(2-aminobenzo[d]thiazol-6-yl)-2-methoxy-N-(1-(3-(trifluoromethoxy)phenyl)ethyl)nicotinamide]			
84 nM	COc1ncc(C(=O)NC(C)c2ccccc2OC(F)(F)F)cc1-c1ccc2nc(N)sc2c1 (centres unmarked) [Compound Z7, 5-(2-aminobenzo[d]thiazol-6-yl)-6-methoxy-N-(1-(2-(trifluoromethoxy)phenyl)ethyl)nicotinamide]			
60 nM	CC(NC(=O)c1cncc(-c2ccc3nc(N)sc3c2)c1)c1ccccc1OC(F)(F)F (centres unmarked) [Compound Z9, 5-(2-aminobenzo[d]thiazol-6-yl)-N-(1-(2-(trifluoromethoxy)phenyl)ethyl)nicotinamide]			
64 nM	Cc1ncc(C(=O)NC(C)c2ccccc2OC(F)(F)F)cc1-c1ccc2nc(N)sc2c1 (centres unmarked) [Compound Z10, 5-(2-aminobenzo[d]thiazol-6-yl)-6-methyl-N-(1-(2-(trifluoromethoxy)phenyl)ethyl)nicotinamide]			
39 nM	Nc1nc2ccc(-c3cnc4c(c3)C(=O)N(Cc3cc(OC(F)(F)F)ccc3F)CC4)cc2s1 [Compound Z55, 3-(2-aminobenzo[d]thiazol-6-yl)-6-(2-fluoro-5-(trifluoromethoxy)benzyl)-7,8-dihydro-1,6-naphthyridin-5(6H)-one]		0.008 µM	
34 nM	Nc1nc2ccc(-c3cnc4c(c3)C(=O)N(Cc3cc(F)cc(F)c3OC3CC3)CC4)cc2s1 [Compound Z64, 3-(2-aminobenzo[d]thiazol-6-yl)-6-(2-cyclopropoxy-3,5-difluorobenzyl)-7,8-dihydro-1,6-naphthyridin-5(6H)-one]	3 nM	0.004 µM	
43 nM	Nc1nc2ccc(-c3cnc4c(c3)C(=O)N(Cc3cc(C(F)(F)F)ccc3F)CC4)cc2s1 [Compound Z65, 3-(2-aminobenzo[d]thiazol-6-yl)-6-(2-fluoro-5-(trifluoromethyl)benzyl)-7,8-dihydro-1,6-naphthyridin-5(6H)-one]		0.048 µM	
